Holding throughout (assay type): biochemical
Test [1] deals with T1, PPM1A (Homo sapiens, UniProt P35813).
T1 sequence (P35813 1-382): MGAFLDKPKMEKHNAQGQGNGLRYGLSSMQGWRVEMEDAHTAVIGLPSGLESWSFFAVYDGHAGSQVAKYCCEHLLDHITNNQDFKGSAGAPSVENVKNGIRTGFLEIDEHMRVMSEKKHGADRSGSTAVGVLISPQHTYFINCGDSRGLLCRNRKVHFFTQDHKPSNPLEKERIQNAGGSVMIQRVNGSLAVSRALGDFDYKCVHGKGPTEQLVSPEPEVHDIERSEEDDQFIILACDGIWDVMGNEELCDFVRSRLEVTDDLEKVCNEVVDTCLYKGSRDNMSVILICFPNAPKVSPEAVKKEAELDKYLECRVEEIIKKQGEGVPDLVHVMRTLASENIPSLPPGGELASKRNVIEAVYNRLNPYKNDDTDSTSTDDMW
The test is described as follows: pNPP hydrolysis phosphatase assay (selectivity panel).

Test [2] has as its target T2, PPM1B-R33K (Homo sapiens, UniProt O75688, R33K).
T2 construct: inferred from pET-28a vector and Ni-NTA purification; made in house; host or cells: Escherichia coli BL21
T2 sequence (O75688 1-479 R33K): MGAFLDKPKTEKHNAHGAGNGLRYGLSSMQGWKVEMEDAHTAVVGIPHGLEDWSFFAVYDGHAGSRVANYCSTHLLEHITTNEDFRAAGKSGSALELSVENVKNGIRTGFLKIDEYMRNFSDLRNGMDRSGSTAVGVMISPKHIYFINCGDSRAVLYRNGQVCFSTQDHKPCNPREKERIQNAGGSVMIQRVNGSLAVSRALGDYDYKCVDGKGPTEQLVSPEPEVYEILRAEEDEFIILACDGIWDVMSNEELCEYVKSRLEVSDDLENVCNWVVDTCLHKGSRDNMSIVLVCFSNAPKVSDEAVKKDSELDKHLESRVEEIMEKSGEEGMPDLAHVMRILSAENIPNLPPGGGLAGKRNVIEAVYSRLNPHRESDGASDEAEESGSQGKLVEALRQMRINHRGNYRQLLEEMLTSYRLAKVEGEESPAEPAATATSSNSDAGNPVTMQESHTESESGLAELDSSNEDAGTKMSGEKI
Briefly: pNPP hydrolysis assay with PPM1B mutant. The settings on record: pNPP substrate, pH 7.0, 37°C. The procedure: (§1) Escherichia coli BL21 strain was transformed with pET‐28a bacterial expression vector harbouring PPM1B and its mutants. ^17 The fusion proteins were induced to be expressed with 0.5 mM isopropyl‐β‐D‐thiogalactoside (IPTG) and purified from bacterial lysate by Ni‐NTA chromatographic matrices (Qiagen) and AKTA FPLC (GE Healthcare Life Sciences) using a Superdex Increase 200 column.
(§2) The kinetic assays of PPM1B were carried out at 37°C in 0.1 M acetic acid buffer (50 mM Tris, 40 mM Mn^2+, pH 7.0). The p‐nitrophenyl phosphate (pNPP, Sigma) was used as the substrate which could be conveniently measured at 405 nm. Reactions were started by addition of pNPP to a reaction mixture containing PPM1B (0.4 μM PPM1B, final concentration) and various concentrations of HN252 and stopped by addition of 0.5 M EDTA (pH 10.0) after an appropriate time. The Km value of PPM1B towards pNPP hydrolysis (3.6 mM for pNPP) was used to determine the IC50. The IC50 values, the inhibition constant Ki and inhibition pattern were evaluated as previously described. ^18 The kinetic assays of HN252 towards to other protein phosphatases were carried out as previously described. ^19

The target of test [3] is T3, PPM1B-K170A (Homo sapiens, UniProt O75688, K170A).
T3 construct: inferred from pET-28a vector and Ni-NTA purification; made in house; host or cells: Escherichia coli BL21
T3 sequence (O75688 1-479 K170A): T2 sequence (O75688 1-479 R33K) with K33R, K170A
The test is described as follows: pNPP hydrolysis assay with PPM1B mutant. The settings on record: pNPP substrate, pH 7.0, 37°C. The procedure: as §1, §2

Test [4] has as its target T4, PPM1F (Homo sapiens, UniProt P49593).
T4 sequence (P49593 1-454): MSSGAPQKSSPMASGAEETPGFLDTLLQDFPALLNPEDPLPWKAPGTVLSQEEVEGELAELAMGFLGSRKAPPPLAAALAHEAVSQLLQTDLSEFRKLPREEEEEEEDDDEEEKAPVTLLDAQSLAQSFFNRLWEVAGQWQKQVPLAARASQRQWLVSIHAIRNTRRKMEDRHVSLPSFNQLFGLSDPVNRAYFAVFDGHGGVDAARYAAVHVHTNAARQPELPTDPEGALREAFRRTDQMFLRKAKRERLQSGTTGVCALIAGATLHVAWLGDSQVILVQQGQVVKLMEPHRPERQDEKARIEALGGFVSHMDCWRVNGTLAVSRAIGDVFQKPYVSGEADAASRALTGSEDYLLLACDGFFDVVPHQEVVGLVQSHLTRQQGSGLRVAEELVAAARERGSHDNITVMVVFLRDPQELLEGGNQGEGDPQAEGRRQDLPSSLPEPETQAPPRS
Briefly: pNPP hydrolysis phosphatase assay (selectivity panel). The settings on record: pNPP as substrate.

Residue numbers refer to the chain shown, from its start. “Also recorded” adds a separate entry of the source.

In the case of `Nc1cc(-c2ccc(-c3ccc(O)c(O)c3)cc2)ccc1C(=O)O` [HN252], in test [1] (Lineweaver-Burk plot, pNPP hydrolysis, pH 7.0, 37°C, 0.4 μM PPM1A), the inhibition pattern entry is reported as “non-competitive inhibition; also recorded: non‐competitive inhibitor”. Moreover, the IC50 in test [1] (pNPP as substrate) stood at 0.72 ± 0.22 µM; in test [2] it was 58.6 ± 10 µM; in test [3], 30.1 ± 5.7 µM; in test [4], 30.6 ± 4.05 µM.

Broadly, the IC50 is the concentration that gives 50% inhibition. A higher IC50 goes with weaker potency.

Source of the values: paper PMC7701510, “Identification of HN252 as a potent inhibitor of protein phosphatase PPM1B” (Journal of Cellular and Molecular Medicine, 2020).
